Literature values as cited in PMC9556824, “Design, synthesis and computational study of new benzofuran hybrids as dual PI3K/VEGFR2 inhibitors targeting cancer” (Scientific Reports, 2022).

Tested on: VEGFR-2
Conditions: read-out: IC50 against VEGFR-2; cited from earlier work

## COc1c(C(=O)/C=C/c2ccc([N+](=O)[O-])cc2)c(O)cc2occc12 [Compound V]
  IC50: 1 nM
